# Where two headings read alike, the source gives them in different places. Peptide text beside a SMILES is read from it.
# Columns and labels:
# pancreatic lipase [1] = target: T1, pancreatic lipase (Sus scrofa, UniProt P00591); parameters: method as in PMID 36195236; conditions: peptides from sesame proteins ref 6; cited from earlier work
# T1 sequence (P00591 1-450): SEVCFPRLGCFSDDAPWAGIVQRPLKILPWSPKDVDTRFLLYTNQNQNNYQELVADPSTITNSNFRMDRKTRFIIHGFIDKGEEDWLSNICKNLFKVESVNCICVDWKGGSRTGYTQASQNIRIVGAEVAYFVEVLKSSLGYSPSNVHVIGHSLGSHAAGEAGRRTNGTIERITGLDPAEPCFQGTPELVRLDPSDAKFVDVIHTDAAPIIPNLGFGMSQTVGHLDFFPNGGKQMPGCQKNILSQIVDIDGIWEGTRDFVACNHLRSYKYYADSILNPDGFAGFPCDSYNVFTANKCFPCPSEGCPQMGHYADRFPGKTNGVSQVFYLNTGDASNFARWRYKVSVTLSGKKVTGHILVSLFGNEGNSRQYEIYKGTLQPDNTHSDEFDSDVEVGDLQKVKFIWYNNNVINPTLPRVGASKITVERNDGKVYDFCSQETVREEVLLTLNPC
# 3T3-L1 cells = tested on: 3T3-L1 cells; parameters: method as in PMID 31569521; conditions: 600 µg/mL, 3T3-L1 cells ref 25; cited from earlier work
# [2] = tested on: porcine pancreatic lipase; parameters: method as in PMID 31569521; conditions: 200 µg/mL ref 25; cited from earlier work
# pancreatic lipase [3] = target: T1, pancreatic lipase; assay: Pancreatic lipase inhibitory activity (4-MUO fluorescence); type: biochemical; conditions: for inhibition at 500 µM: peptide concentration 0.5 mM, read-out: inhibitory percentage on pancreatic lipase; for IC50: read-out: IC50 against pancreatic lipase
# Method: The sample was diluted to an appropriate concentration with Tris HCl buffer. […] The fluorescence intensity was measured at excitation wavelength λex = 320 nm and emission wavelength λem = 450 nm. A buffer (25 μL) and enzyme solution (25 μL) were added for the control group. A sample solution (25 μL) and buffer (25 μL) were added for background group. Each group of experiments was repeated 3 times. The calculation formula of pancreatic lipase inhibition rate was as follows:(1) Lipase inhibition rate (%)=(1−FLUsample−FLUbackground/FLUnegative control−FLUnegative background)×100
# Among them, FLUsample was the light absorption value of the experimental group; FLUbackground was the light absorption value of the sample background group; FLUnegative control was the absorbance value of the control group without samples; and FLUnegative background was the absorbance value of the background of the control group.
# pancreatic lipase [4] = target: T1, pancreatic lipase; assay: Inhibition kinetics of pancreatic lipase (Lineweaver–Burk); type: biochemical; conditions: read-out: equilibrium constant Ki
# Method: In total, a 25 μL sample solution of different concentrations, a 25 μL enzyme solution, and 50 μL substrates with different concentrations were added to the 96-well plate. The fluorescence value FLU was immediately measured at the excitation wavelength λex = 320 nm and emission wavelength λem = […], every 1 min within 20 min, and each group of experiments was repeated 3 times. The slope of the “fluorescence value-time” linear fitting curve represented the reaction rate of the enzyme in the presence of the sample. The Lineweaver–Burk double reciprocal diagram was drawn to analyze the inhibition type of synthetic peptides on enzymes.
# [5] = cited from earlier work
# pancreatic lipase [6] = target: T1, pancreatic lipase; assay: Fluorescence quenching assay of pancreatic lipase; conditions: binding constant Ka, Table S2
# 3T3-L1 preadipocytes = tested on: 3T3-L1 preadipocytes; parameters: method as in doi:10.1016/j.jff.2018.05.066; conditions: 600 μg/mL, compared with the control ref 24; cited from earlier work
# HepG2 cells = assay: Fat accumulation (oil red O) and triglyceride content in oleic acid-induced HepG2; type: cell-based; conditions: orlistat positive control 2 mM, peptides at different concentrations
# Method: The HepG2 cells (Guangzhou Health Institute, Guangzhou, China) in logarithmic growth period were starved with serum-free medium for 12 h. Then, we replaced the medium with a complete medium containing 0.5 mM oleic acid and 0.4% FBS, and cultured this for 2–4 days (replacing the new oleic acid containing medium every day). The cells were divided into groups, and samples were added to each group as follows: Normal group: 1 mL of complete medium containing 0.4% serum; Model group: 1 mL of medium containing 0.5 mM oleic acid and 0.4% FBS; Positive control group: 1 mL of medium containing 2 mM orlistat, 0.5 mM oleic acid and 0.4% FBS; Sample treatment group: adding 1 mL of samples with different concentrations (high, medium, low) and medium containing 0.5 mM oleic acid and 0.4% FBS. […] Then, the paraformaldehyde solution was discarded, PBS was washed 3 times, and 1 mL of oil red O staining solution was added to each well. After dyeing at 37 °C for 1 h, the dye solution was discarded, washed with PBS 3 times, and 1 mL of PBS was added to prevent cell drying. […] According to the instructions of the triglyceride (TG) test box, the TG content of each well was measured using the GPO-PAP method, and the protein content was measured using the BCA method. The results were expressed as the triglyceride content per gram of protein (mmol/g protein).
compound,measurement,setting,value
NIF,IC50,pancreatic lipase [1],1040 ± 179 µM
Leu-Leu-Val-Val-Try-Pro-Trp-Thr-Gln-Arg [PP1],decrease of accumulation of intracellular triacylglycerol,3T3-L1 cells,27.9%
same,inhibitory effect against porcine pancreatic lipase,[2],47.95%
AGY,IC50,pancreatic lipase [1],1180 ± 179 µM
CSCC[C@H](NC(=O)[C@H](CC(C)C)NC(=O)[C@H](CC(C)C)NC(=O)[C@@H](N)Cc1c[nH]c2ccccc12)C(=O)N[C@@H](Cc1c[nH]c2ccccc12)C(=O)N1CCC[C@H]1C(=O)N[C@@H](Cc1ccc(O)cc1)C(=O)N[C@@H](CCCCN)C(=O)O [WK-8] (H-WLLMWPYK-OH),inhibition at 500 µM,pancreatic lipase [3],67.3 ± 1.1%
same,IC50,pancreatic lipase [3],52.8 µM
same,Ki,pancreatic lipase [4],192 ± 25.3 µM
VVYP,effect on hypertriglyceridemia,[5],inhibitory effect on hypertriglyceridemia
QWM,IC50,pancreatic lipase [1],986 ± 170 µM
CSCC[C@H](NC(=O)[C@H](CC(C)C)NC(=O)[C@H](CC(C)C)NC(=O)CNC(=O)[C@@H](N)CCC(=O)O)C(=O)N[C@@H](Cc1c[nH]c2ccccc12)C(=O)N1CCC[C@H]1C(=O)N[C@@H](Cc1ccc(O)cc1)C(=O)O [EY-8] (H-EGLLMWPY-OH),inhibition at 500 µM,pancreatic lipase [3],80.47 ± 0.11%
same,IC50,pancreatic lipase [3],171 µM
same,Ki,pancreatic lipase [4],578 ± 58.1 µM
"CC(C)C[C@H](NC(=O)[C@@H](N)CC(N)=O)C(=O)N[C@@H](Cc1ccc(O)cc1)C(=O)N[C@@H](Cc1ccc(O)cc1)C(=O)N[C@@H](CCCCN)C(=O)N[C@H](C(=O)N[C@H](C(=O)O)C(C)C)C(C)C [NV-7, NLYYKVV] (H-NLYYKVV-OH)",Kd,pancreatic lipase [6]; 298 K,93.8 µM
same,Kd,pancreatic lipase [6]; 304 K,106 µM
same,Kd,pancreatic lipase [6]; 310 K,203 µM
same,inhibition at 500 µM,pancreatic lipase [3],95.42 ± 0.6%
same,Ki,pancreatic lipase [4],77.3 ± 7.65 µM
NPVWKRK,inhibition on triglyceride production,3T3-L1 preadipocytes,23.7%
"CC(C)[C@H](NC(=O)[C@H](Cc1ccc(O)cc1)NC(=O)[C@H](Cc1c[nH]c2ccccc12)NC(=O)[C@@H](N)Cc1c[nH]c2ccccc12)C(=O)N[C@@H](CCCCN)C(=O)O [WK-5, WWYVK] (H-WWYVK-OH)",inhibition at 500 µM,pancreatic lipase [3],68.9 ± 1.8%
same,IC50,pancreatic lipase [3],246 µM
same,Ki,pancreatic lipase [4],578 ± 25.7 µM
CANPHELPNK,inhibition on triglyceride production,3T3-L1 preadipocytes,19.5%
CCCCCCCCCCC[C@@H](C[C@@H]1OC(=O)[C@H]1CCCCCC)OC(=O)[C@H](CC(C)C)NC=O [orlistat],"fat (oil) accumulation in HepG2 cells, oil red O staining",HepG2 cells,significantly reduce the oil accumulation in cells

# Source: publication PMC9863159, “Isolation and Identification of Lipid-Lowering Peptides from Sacha Inchi Meal” (International Journal of Molecular Sciences, 2023)
